ChEMBL document CHEMBL5465560, “Selectivity Literature for EUbOPEN Chemogenomic Library” (2024)

How the values were obtained:
[1] = target: Tyrosine-protein kinase Blk (Homo sapiens) (UniProt P51451); assay: Selectivity interaction (Kinase screening (Upstate/Millipore)) EUB0000604a BLK
[2] = target: Activin receptor type-2B (Homo sapiens) (UniProt Q13705); assay: Selectivity interaction (Ambit KINOMEscan and KiNATiv profiling in Jurkat cells) EUB0000090b ACVR2B; assay type: cell-based; conditions: at 1 µM
Sequence of Activin receptor type-2B (Homo sapiens) (Q13705 whole entry): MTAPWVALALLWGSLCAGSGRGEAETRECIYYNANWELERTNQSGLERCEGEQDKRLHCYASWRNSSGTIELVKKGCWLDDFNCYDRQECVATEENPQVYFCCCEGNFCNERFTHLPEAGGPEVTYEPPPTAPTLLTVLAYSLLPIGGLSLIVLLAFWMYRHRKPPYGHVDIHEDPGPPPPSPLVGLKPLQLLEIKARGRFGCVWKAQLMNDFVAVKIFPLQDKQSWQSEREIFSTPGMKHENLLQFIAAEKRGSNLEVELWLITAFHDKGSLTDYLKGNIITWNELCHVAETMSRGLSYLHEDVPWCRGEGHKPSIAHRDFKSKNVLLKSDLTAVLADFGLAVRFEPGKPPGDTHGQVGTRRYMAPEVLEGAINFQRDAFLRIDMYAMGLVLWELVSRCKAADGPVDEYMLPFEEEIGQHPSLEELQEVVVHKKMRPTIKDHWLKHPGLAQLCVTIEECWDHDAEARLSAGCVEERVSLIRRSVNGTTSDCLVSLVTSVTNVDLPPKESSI

[3] = target: T1, Serine/threonine-protein kinase greatwall (Homo sapiens) (UniProt Q96GX5); assay: Selectivity interaction (ActivX KiNativ screen (kinase selectivity in THP-1 cell lysates)) EUB0000639a MASTL; assay type: subcellular; conditions: lysate, at 0.2 µM
T1 sequence (whole entry): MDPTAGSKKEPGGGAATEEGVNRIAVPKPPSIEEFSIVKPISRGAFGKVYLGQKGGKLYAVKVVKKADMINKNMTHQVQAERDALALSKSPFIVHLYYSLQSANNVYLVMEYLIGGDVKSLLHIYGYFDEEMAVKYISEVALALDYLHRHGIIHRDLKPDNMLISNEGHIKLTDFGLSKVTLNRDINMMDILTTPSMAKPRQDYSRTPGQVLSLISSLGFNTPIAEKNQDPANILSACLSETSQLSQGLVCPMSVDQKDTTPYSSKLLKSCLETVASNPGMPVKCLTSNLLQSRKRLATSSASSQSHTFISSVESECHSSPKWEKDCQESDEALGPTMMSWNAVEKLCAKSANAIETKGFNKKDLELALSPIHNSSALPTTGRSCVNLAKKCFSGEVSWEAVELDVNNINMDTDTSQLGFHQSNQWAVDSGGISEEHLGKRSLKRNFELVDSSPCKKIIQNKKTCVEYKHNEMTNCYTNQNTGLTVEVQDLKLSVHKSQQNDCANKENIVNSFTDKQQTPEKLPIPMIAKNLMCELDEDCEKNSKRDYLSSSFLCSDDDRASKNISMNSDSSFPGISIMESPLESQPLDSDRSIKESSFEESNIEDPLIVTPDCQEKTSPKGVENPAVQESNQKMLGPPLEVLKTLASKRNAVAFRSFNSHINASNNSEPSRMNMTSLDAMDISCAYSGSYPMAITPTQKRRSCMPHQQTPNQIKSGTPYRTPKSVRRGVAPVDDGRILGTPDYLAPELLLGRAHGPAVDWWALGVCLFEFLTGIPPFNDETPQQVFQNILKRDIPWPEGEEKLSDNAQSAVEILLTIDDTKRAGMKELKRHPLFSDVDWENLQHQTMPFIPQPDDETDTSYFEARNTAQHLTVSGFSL

[4] = target: DNA (cytosine-5)-methyltransferase 3B (Homo sapiens) (UniProt Q9UBC3); assay: Selectivity interaction (PWWP, WD40, and Tudor domain panel (DSLS measurements, literature)) EUB0000270b DNMT3B
[5] = target: T2, Histone-arginine methyltransferase CARM1 (Homo sapiens) (UniProt Q86X55); assay: Selectivity interaction (Methyltransferase screen (radiometric assays, panel of 8 PRMTs, 21 protein lysine methyltransferases, 3 DNA methyltransferases, and one RNA methyltransferase)) EUB0000271b CARM1
T2 sequence (whole entry): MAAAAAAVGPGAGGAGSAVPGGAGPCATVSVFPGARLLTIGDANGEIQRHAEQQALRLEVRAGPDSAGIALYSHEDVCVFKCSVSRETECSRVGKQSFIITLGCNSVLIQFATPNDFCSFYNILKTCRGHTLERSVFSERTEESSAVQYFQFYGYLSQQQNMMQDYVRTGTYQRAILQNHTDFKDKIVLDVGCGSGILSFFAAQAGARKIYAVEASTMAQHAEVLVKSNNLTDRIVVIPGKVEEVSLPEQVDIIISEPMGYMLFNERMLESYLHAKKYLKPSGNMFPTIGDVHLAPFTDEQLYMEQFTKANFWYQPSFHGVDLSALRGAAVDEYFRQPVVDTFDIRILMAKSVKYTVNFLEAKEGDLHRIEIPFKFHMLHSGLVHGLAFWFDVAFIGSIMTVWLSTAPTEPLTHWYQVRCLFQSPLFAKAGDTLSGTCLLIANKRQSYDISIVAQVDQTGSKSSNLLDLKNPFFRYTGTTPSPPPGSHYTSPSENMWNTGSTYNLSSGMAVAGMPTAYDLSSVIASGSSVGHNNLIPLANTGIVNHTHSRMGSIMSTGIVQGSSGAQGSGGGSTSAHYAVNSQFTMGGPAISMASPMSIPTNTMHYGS

[6] = target: NT-3 growth factor receptor (Homo sapiens, UniProt Q16288); assay: Selectivity interaction (KinomeScan (DiscoverX)) EUB0000229b NTRK3; conditions: at 10 µM
Sequence of NT-3 growth factor receptor (Q16288 32-839 limits assumed): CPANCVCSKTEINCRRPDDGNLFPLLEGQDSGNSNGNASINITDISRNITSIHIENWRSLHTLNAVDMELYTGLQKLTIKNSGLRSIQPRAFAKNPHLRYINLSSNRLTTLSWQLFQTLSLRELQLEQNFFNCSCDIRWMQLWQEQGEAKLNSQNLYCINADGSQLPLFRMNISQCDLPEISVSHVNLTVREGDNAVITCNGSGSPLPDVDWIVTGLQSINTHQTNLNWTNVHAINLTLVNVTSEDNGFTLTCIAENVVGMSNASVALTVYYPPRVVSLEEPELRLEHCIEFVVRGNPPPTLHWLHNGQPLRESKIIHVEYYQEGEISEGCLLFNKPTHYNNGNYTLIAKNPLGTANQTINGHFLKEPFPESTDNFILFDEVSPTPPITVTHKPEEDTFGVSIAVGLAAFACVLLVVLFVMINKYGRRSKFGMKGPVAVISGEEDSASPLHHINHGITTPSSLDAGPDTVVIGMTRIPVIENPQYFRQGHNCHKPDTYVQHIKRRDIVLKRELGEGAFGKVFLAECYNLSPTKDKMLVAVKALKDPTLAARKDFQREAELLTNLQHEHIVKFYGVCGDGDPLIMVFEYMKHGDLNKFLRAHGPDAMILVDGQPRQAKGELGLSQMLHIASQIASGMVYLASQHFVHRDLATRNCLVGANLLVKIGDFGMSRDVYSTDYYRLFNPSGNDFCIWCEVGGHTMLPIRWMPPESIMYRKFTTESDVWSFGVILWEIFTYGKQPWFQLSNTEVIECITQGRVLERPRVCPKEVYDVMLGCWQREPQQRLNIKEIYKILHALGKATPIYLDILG

[7] = target: LIM domain kinase 1 (Homo sapiens) (UniProt P53667); assay: Selectivity interaction (KinomeScan (DiscoverX)) EUB0001079a LIMK1; conditions: at 1 µM
Sequence of LIM domain kinase 1 (Homo sapiens) (P53667 whole entry, looked up, the tested form may be a part): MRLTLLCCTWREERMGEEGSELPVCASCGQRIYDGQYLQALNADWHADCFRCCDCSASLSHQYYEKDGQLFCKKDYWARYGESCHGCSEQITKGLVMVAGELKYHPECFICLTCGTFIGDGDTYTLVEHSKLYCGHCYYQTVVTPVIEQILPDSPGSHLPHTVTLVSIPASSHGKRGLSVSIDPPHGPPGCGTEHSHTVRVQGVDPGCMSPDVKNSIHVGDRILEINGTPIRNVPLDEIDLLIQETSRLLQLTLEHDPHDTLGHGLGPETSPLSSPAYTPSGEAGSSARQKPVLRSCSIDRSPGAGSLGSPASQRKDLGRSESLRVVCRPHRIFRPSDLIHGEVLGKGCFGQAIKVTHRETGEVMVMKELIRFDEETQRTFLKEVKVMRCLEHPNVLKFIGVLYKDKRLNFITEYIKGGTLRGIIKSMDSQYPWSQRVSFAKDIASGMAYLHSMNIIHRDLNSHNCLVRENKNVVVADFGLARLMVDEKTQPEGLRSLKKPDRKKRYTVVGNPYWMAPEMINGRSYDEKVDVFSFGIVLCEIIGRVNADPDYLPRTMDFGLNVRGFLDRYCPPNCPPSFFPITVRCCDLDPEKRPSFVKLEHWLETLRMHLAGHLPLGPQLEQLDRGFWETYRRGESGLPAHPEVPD

[8] = target: Ribosomal protein S6 kinase alpha-3 (Homo sapiens, UniProt P51812); assay: Selectivity interaction (KinomeScan (DiscoverX)) EUB0001619a RPS6KA3; conditions: at 1 µM
Sequence of Ribosomal protein S6 kinase alpha-3 (P51812 whole entry): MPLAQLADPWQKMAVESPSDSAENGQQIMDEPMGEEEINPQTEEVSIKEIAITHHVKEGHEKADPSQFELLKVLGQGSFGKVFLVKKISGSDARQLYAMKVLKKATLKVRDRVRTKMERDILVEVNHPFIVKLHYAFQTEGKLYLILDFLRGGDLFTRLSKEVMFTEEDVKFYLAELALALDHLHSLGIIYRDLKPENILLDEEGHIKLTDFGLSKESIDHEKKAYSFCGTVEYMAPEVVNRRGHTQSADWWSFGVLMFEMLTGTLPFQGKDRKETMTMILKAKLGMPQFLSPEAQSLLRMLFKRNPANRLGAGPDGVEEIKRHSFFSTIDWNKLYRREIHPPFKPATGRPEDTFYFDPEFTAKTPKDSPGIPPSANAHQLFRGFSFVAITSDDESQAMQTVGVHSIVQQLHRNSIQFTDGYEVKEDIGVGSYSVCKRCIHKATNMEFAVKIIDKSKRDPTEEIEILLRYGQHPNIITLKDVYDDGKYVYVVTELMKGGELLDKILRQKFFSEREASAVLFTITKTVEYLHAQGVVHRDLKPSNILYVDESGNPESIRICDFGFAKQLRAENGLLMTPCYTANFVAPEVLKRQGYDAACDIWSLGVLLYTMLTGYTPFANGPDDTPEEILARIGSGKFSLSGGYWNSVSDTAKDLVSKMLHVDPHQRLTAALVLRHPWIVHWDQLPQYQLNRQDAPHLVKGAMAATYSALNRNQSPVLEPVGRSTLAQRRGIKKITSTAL

[9] = target: T3, Serine/threonine-protein kinase 4 (Homo sapiens) (UniProt Q13043); assay: Selectivity interaction (Kinase panel (DSF assay)) EUB0001559a STK4
T3 sequence (whole entry): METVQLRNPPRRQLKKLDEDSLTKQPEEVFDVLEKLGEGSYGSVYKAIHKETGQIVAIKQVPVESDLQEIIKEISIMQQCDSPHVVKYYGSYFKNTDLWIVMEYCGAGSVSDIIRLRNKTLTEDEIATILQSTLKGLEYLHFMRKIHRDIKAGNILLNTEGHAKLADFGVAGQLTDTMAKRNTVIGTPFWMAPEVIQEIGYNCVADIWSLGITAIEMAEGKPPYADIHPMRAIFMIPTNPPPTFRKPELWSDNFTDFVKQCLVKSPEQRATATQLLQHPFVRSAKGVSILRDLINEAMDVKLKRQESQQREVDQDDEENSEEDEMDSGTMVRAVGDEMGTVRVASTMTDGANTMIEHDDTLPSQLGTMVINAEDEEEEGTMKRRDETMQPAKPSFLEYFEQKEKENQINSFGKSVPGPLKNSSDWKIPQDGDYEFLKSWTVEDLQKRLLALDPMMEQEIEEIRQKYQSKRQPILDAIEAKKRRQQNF

[10] = target: Mitogen-activated protein kinase 8 (Homo sapiens, UniProt P45983); assay: Selectivity interaction (KinomeScan (DiscoverX)) EUB0000666a MAPK8; conditions: at 10 µM
Sequence of Mitogen-activated protein kinase 8 (P45983 whole entry): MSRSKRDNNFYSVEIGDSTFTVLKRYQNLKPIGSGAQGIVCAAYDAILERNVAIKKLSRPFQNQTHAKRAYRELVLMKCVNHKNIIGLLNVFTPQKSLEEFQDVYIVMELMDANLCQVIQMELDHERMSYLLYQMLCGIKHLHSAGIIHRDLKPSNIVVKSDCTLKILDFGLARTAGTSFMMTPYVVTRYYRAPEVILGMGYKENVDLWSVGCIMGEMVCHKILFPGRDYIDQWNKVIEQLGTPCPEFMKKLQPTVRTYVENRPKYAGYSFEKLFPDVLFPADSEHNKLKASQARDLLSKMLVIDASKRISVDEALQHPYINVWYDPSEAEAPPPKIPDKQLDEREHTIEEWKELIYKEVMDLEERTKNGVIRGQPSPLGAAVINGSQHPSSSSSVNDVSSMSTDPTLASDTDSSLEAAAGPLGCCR

Sequence of Tyrosine-protein kinase Blk (Homo sapiens) (P51451 2-505 limits assumed): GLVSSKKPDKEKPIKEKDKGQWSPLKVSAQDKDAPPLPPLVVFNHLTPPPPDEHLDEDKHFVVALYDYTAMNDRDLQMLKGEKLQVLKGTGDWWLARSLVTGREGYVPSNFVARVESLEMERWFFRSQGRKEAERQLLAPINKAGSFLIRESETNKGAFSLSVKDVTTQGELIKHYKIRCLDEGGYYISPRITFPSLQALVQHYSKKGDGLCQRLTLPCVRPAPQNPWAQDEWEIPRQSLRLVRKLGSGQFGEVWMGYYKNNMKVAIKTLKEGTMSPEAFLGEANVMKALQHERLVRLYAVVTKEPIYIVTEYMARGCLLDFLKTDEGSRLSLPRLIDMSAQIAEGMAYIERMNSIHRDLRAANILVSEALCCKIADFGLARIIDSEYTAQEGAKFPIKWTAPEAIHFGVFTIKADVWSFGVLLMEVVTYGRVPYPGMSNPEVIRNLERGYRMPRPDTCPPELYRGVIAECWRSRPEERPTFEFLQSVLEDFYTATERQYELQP

Cc1cnc(Nc2ccc(F)cc2Cl)nc1-c1c[nH]c(C(=O)N[C@H](CO)c2cccc(Cl)c2)c1
% of inhibition [1]: 7%

CN(C)C/C=C/C(=O)Nc1ccc(C(=O)N2CCCC(Nc3ncc(Cl)c(-c4c[nH]c5ccccc45)n3)C2)cc1 (stereo unspecified)
% of control [2]: 77%

CC[C@@H]1[C@H](F)C(=O)N[C@@H]1COc1nccc2cc(C(N)=O)c(OC)cc12 [ZIMLOVISERTIB]
% of inhibition [3]: 16.4%

Cc1cc(CN)cc(C)c1-c1ncn(C)c1-c1cncn1C
dTagg [4]: 0 K

Cc1cc(C)cc([C@@H]2c3cc(C)ccc3NC(=O)CN2C(=O)c2ccc(Br)s2)c1
% of activity ([5]; at 1 µM): 98% | % of activity ([5]; at 10 µM): 96.3%

COc1cc(N(C)c2ccnc3ccc(C(F)(F)F)cc23)cc(OC)c1OC
% binding [6]: 100%

Nc1cnc(N2CCc3cc(S(=O)(=O)Nc4c(F)cc(Cl)cc4F)cc(N4CCCC4=O)c32)nc1 [TP-020n]
% of control [7]: 100%

N#Cc1cccc(-c2c[nH]c3ncnc(N4CCOCC4)c23)c1
% of control [8]: 38%

CN(C(=O)c1cnn2cccnc12)c1cc2c(cc1N1CCOCC1)C(=O)N(C[C@@H](F)C(C)(C)O)C2
dTM [9]: -0.1 K

O=C(NOC[C@H](O)CO)c1ccc(F)c(F)c1Nc1ccc(I)cc1F
% of control [10]: 92%
